Values quoted from earlier work as cited in patent US20140230258A1, “COMPACT HAND HELD DEVICE” (The Gillette Company, priority 2013, published 2014).

Conditions: organism not stated

CCCCCCCCn1sc(Cl)c(Cl)c1=O [4,5-dichloro-2-n-octyl-4-isothiazolin-3-one]
MIC: about 50 ppm
